Target: T1, NLRP3 (Homo sapiens, UniProt Q96P20)
T1 construct: host or cells: PMA-differentiated THP-1 cells
Test: Measurement of IL-1β production (NLRP3 hIL1β EC50), PMA-differentiated THP-1 cells
Format: cell-based
Conditions: human IL-1β production; assayed using one or more of the described procedures
Description: THP-1 cells were purchased from the American Type Culture Collection and sub-cultured according to instructions from the supplier. Prior to experiments, cells were cultured in RPMI 1640 containing 10% heat inactivated FBS, penicillin (100 units/ml) and streptomycin (100 μg/ml), and maintained in log phase prior to experimental setup. Prior to the experiment THIP-1 were treated with PMA (Phorbol 12-myristate 13-acetate) (10 μg/ml) for 24 hours. The day of the experiment the media was removed and attaching cells were treated with trypsin for 2 minutes, cells were then collected, washed with PBS (phosphate buffer saline), spin down, resuspended in 2% heat inactivated FBS with RPMI at a concentration of 1×10^6 cells/ml, and 100 μl was plated in a 96 well plate. Compounds were dissolved in dimethyl sulfoxide (DMSO) and added to the culture medium to achieve desired concentration (e.g. 100, 30, 10, 3, 1, 0.3 or 0.1 μM). Cells were incubated with compounds for 4 hours. Cell free supernatant was collected and the production of IL-1β was evaluated by ELISA. A vehicle only control was run concurrently with each experiment. Final DMSO concentration was 1%.
THP-1 cells were purchased from the American Type Culture Collection and sub-cultured according to instructions from the supplier. Prior to experiments, cells were cultured in RPMI 1640 containing 10% heat inactivated FBS, penicillin (100 units/ml), streptomycin (100 μg/ml), HEPES (10 mM) and sodium pyruvate (1 mM) and maintained in log phase prior to experimental setup. Prior to the experiment, THP-1 cells were treated with PMA (Phorbol 12-myristate 13-acetate) (20 μg/ml) overnight. The day of the experiment, the media was removed and attached cells were treated with trypsin for 2 minutes, cells were then collected, washed with PBS (phosphate buffer saline), pelleted by centrifugation and resuspended in 2% heat inactivated FBS with RPMI at a concentration of 50,000 cells/well in a 384 well plate. Cell free supernatant was collected and the production of IL-1β was evaluated by ELISA. Compounds were dissolved in dimethyl sulfoxide (DMSO) and added to the culture medium to achieve desired concentration (e.g. 100, 30, 10, 3, 1, 0.3 or 0.1 μM). Cells were incubated with compounds for 2 hours. A vehicle only control was run concurrently with each experiment. Final DMSO concentration was 1%.
Serial dilutions of compounds in DMSO were added to low volume 384 well plates at 100 nl/well using an ECHO 550 acoustic dispenser (Labcyte) to achieve final starting concentration of 10 μM in assay.
THP-1 cells in RPMI (Gibco, 11875) media with 10% FBS at a density of 1×10^6 cell/ml in a T175 flask were treated with a final concentration of phorbol 12-myristate 13-acetate (PMA) (Sigma,P1585) of 50 ng/ml overnight at 37° C. at 5% CO2 for differentiation. Cells were harvested the next day after rinsing well with dPBS using 0.5% trypsin. A cell solution was prepared of 1×10^6 cells/ml for 50,000 cells in 50 μl/well in RPMI media with 2% FBS. Cells were plated using a multichannel pipette onto the compound dilutions in Greiner, 384 well, black clear bottom tissue culture treated plates (781090). The plates were incubated in 37° C. incubator at 5% CO2 for 2 hours.
After the 2 hour incubation, the cell plates were spun in the centrifuge for 5 minutes at 1200 rpm. Using the Felix (CyBio), 8 μl of the supernatant was transferred to 384 well, low volume, white proxy plates. (Perkin Elmer, 6008230). A human IL1beta hTRF kit was used to analyze the supernatant (CISBIO, 62HIL1BPEG). The kit instructions were followed for preparing the IL1Beta standard curve and then the antibodies from the kit were diluted 1:40 rather than 1:20 as kit instructed. Once combined, the antibodies were added across the plates, 5 μl/well. The plates were sealed and incubated at 4° C. overnight. The plates were then read on the Perkin Elmer EnVision at 665/615 nm using the hTRF laser.

T1 sequence (Q96P20 whole entry): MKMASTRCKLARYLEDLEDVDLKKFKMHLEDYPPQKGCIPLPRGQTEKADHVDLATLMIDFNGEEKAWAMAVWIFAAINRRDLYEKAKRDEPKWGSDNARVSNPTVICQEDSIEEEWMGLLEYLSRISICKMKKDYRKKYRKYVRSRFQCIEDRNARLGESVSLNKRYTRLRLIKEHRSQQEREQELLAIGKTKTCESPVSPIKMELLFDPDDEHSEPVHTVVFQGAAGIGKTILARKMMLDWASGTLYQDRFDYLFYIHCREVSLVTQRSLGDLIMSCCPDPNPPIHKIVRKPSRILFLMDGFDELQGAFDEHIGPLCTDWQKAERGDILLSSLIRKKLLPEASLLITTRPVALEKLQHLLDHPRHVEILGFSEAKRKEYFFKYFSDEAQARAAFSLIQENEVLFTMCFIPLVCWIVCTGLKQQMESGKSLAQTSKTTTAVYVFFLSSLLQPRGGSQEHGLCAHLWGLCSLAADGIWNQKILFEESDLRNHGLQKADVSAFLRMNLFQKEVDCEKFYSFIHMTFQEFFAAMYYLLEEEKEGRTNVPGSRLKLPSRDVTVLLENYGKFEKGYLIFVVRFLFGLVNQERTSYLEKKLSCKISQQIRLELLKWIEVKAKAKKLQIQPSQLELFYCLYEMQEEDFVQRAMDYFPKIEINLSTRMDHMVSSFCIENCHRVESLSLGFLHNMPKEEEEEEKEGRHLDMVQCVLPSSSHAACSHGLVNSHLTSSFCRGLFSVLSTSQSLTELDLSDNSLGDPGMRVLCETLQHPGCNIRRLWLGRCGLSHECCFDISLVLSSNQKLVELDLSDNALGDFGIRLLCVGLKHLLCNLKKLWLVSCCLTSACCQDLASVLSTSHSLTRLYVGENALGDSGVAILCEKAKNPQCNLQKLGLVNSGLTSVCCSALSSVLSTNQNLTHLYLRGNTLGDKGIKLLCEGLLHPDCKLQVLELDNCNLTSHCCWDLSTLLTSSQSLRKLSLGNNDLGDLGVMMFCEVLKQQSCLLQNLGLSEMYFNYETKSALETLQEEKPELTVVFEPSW

| EC50 | Molecule |
| --- | --- |
| 6800 nM | Nc1nc2cc(-c3cc[nH]n3)ccc2c2[nH]c([C@H]3CCN(C(=O)CC(F)(F)F)C3)nc12 [Example 74] |
| 110 nM | CCn1c([C@H]2CCCN(C(=O)C3(C#N)CC3)C2)nc2c(N)nc3cc(-c4cc[nH]n4)ccc3c21 [Example 45] |
| 2000 nM | N#CC1(C(=O)N2CCC[C@@H](c3nc4c(N)nc5cc(-c6cc[nH]n6)ccc5c4[nH]3)C2)CCC1 [Example 69] |
| 3500 nM | CC(C)CC(=O)N1CCC[C@@H](c2nc3c(N)nc4cc(-c5cc[nH]n5)ccc4c3[nH]2)C1 [Example 66] |
| 970 nM | COCCC(=O)N1CCC[C@H](c2nc3c(N)nc4cc(-c5cc[nH]n5)ccc4c3n2C(C)C)C1 [Example 59] |
| 770 nM | CCn1c([C@H]2CCCN(C(C)=O)C2)nc2c(N)nc3cc(-c4cc[nH]n4)ccc3c21 [Example 41] |
| 1520 nM | CC(C)(C)OC(=O)N1CCC[C@@H]1Cc1nc2c(N)nc3cc(-c4cc[nH]n4)ccc3c2[nH]1 [Example 13, tert-Butyl (R)-2-((4-amino-7-(1H-pyrazol-3-yl)-1H-imidazo[4,5-c]quinolin-2-yl)methyl)pyrolidine-1-carboxylate] |
| 2300 nM | Nc1nc2cc(-c3cc[nH]n3)ccc2c2[nH]c([C@@H]3CCCN(C(=O)C4(C(F)(F)F)CC4)C3)nc12 [Example 68] |
| 1500 nM | Nc1nc2cc(-c3cc[nH]n3)ccc2c2[nH]c([C@H]3CCCN(C(=O)c4ccccc4)C3)nc12 [Example 31] |
| 2200 nM | tert-Butyl 3-((4-amino-7-(1H-pyrazol-1-yl)-1H-imidazo[4,5-c]quinolin-2-yl)methyl)pyrrolidine-1-carboxylate [Example 23] |
| 240 nM | CC(C)n1c([C@H]2CCCN(C(=O)C3CCC3)C2)nc2c(N)nc3cc(-c4cc[nH]n4)ccc3c21 [Example 54] |
| 680 nM | Nc1nc2cc(-c3cc[nH]n3)ccc2c2[nH]c([C@H]3CCCN(C(=O)C4CCC4)C3)nc12 [Example 30] |
| 1100 nM | CCC(=O)N1CCC[C@H](c2nc3c(N)nc4cc(-c5cc[nH]n5)ccc4c3[nH]2)C1 [Example 25] |
| 1400 nM | CCN1CCC(Cc2nc3c(N)nc4cc(-n5cccn5)ccc4c3[nH]2)C1 (stereo not shown) [Example 22, 2-((1-Ethylpyrrolidin-3-yl)methyl)-7-(1H-pyrazol-1-yl)-1H-imidazo[4,5-c]quinolin-4-amine] |
| 1800 nM | CCC(=O)N1CCC[C@@H]1Cc1nc2c(N)nc3cc(-c4cc[nH]n4)ccc3c2[nH]1 [Example 15, (R)-1-(2-((4-Amino-7-(1H-pyrazol-3-yl)-1H-imidazo[4,5-c]quinolin-2-yl)methyl)pyrrolidin-1-yl)propane-1-one] |
| 4900 nM | CC(=O)N1CCC(Cc2nc3c(N)nc4cc(-c5cc[nH]n5)ccc4c3[nH]2)C1 (stereo not shown) [Example 20, 1-(3-((4-Amino-7-(1H-pyrazol-3-yl)-1H-imidazo[4,5-c]quinolin-2-yl)methyl)pyrrolidin-1-yl)ethan-1-one] |
| 5900 nM | Nc1nc2cc(-c3cc[nH]n3)ccc2c2[nH]c(C[C@H]3CCCN3C(=O)c3ccccn3)nc12 [Example 85] |
| 1200 nM | Nc1nc2cc(-c3cc[nH]n3)ccc2c2[nH]c(C[C@@H]3CCCN3)nc12 [Example 17, (S)-7-(1H-pyrazol-3-yl)-2-(pyrrolidin-2-ylmethyl)-1H-imidazo[4,5-c]quinolin-4-amine] |
| 1900 nM | CC(C)(C)C(=O)N1CCC[C@H]1Cc1nc2c(N)nc3cc(-c4cc[nH]n4)ccc3c2[nH]1 [Example 88] |
| 180 nM | CCn1c([C@H]2CCCN(C(=O)c3ccccc3)C2)nc2c(N)nc3cc(-c4cc[nH]n4)ccc3c21 [Example 46] |
| 750 nM | CC(C)(C)OC(=O)N1CC[C@@H](c2nc3c(N)nc4cc(-c5cc[nH]n5)ccc4c3[nH]2)C1 [Example 10, tert-Butyl (R)-3-(4-amino-7-(1H-pyrazol-3-yl)-1H-imidazo[4,5-c]quinolin-2-yl)pyrrolidine-1-carboxylate] |
| 4700 nM | N#CC1(C(=O)N2CCC[C@H](c3nc4c(N)nc5cc(-c6cc[nH]n6)ccc5c4[nH]3)C2)CCC1 [Example 37] |

| EC50 | Molecule |
| --- | --- |
| 6400 nM | CC(C)C(=O)N1CCC[C@H]1Cc1nc2c(N)nc3cc(-c4cc[nH]n4)ccc3c2[nH]1 [Example 86] |
| 4100 nM | Nc1nc2cc(-c3cc[nH]n3)ccc2c2[nH]c([C@@H]3CCN(C(=O)c4ccccc4)C3)nc12 [Example 77] |
| 6000 nM | COCCC(=O)N1CCC[C@H]1Cc1nc2c(N)nc3cc(-c4cc[nH]n4)ccc3c2[nH]1 [Example 90] |
| 6200 nM | N#CC1(C(=O)N2CCC[C@H]2Cc2nc3c(N)nc4cc(-c5cc[nH]n5)ccc4c3[nH]2)CCC1 [Example 94] |
| 5000 nM | N#CC1(C(=O)N2CC[C@H](c3nc4c(N)nc5cc(-c6cc[nH]n6)ccc5c4[nH]3)C2)CC1 [Example 75] |
| 510 nM | Nc1nc2cc(-c3cc[nH]n3)ccc2c2[nH]c([C@H]3CCCNC3)nc12 [Example 2, (S)-2-(Piperidin-3-yl)-7-(1H-pyrazol-3-yl)-1H-imidazo[4,5-c]quinolin-4-amine] |
| 1000 nM | Nc1nc2cc(-c3cc[nH]n3)ccc2c2[nH]c([C@H]3CCCN(C(=O)C4CC4(F)F)C3)nc12 (stereo partly shown) [Example 33] |
| 2800 nM | Nc1nc2cc(-c3cc[nH]n3)ccc2c2[nH]c([C@H]3CCCN(C(=O)C4(C(F)(F)F)CC4)C3)nc12 [Example 36] |
| 9400 nM | N#CC1(C(=O)N2CCC[C@H]2Cc2nc3c(N)nc4cc(-c5cc[nH]n5)ccc4c3[nH]2)CC1 [Example 92] |
| 4100 nM | Nc1nc2cc(-c3cc[nH]n3)ccc2c2[nH]c(C[C@@H]3CCCN3C(=O)C3CC3(F)F)nc12 (stereo partly shown) [Example 91] |
| 6600 nM | Nc1nc2cc(-c3cc[nH]n3)ccc2c2[nH]c([C@@H]3CCCN(C(=O)C4CC4(F)F)C3)nc12 (stereo partly shown) [Example 63] |
| 620 nM | C#CCC(=O)N1CCC[C@H](c2nc3c(N)nc4cc(-c5cc[nH]n5)ccc4c3n2CC)C1 [Example 49] |
| 220 nM | CCn1c([C@H]2CCCN(C(=O)C3CCC3)C2)nc2c(N)nc3cc(-c4cc[nH]n4)ccc3c21 [Example 44] |
| 230 nM | CC(C)CC(=O)N1CCC[C@H](c2nc3c(N)nc4cc(-c5cc[nH]n5)ccc4c3n2C(C)C)C1 [Example 53] |
| 230 nM | CC(C)n1c([C@H]2CCCN(C(=O)C3(C#N)CC3)C2)nc2c(N)nc3cc(-c4cc[nH]n4)ccc3c21 [Example 55] |
| 210 nM | CCn1c([C@H]2CCCN(C(=O)CC(C)C)C2)nc2c(N)nc3cc(-c4cc[nH]n4)ccc3c21 [Example 43] |
| 4000 nM | Nc1nc2cc(-c3cc[nH]n3)ccc2c2[nH]c(C[C@H]3CCCN3C(=O)C3(C(F)(F)F)CC3)nc12 [Example 81] |
| 6600 nM | COCC(=O)N1CCC[C@@H]1Cc1nc2c(N)nc3cc(-c4cc[nH]n4)ccc3c2[nH]1 [Example 80] |
| 11000 nM | Nc1nc2cc(-c3cc[nH]n3)ccc2c2[nH]c(C[C@@H]3CCCN3C(=O)c3ccccc3)nc12 [Example 96] |
| 4600 nM | CC(C)C(=O)N1CCC[C@@H](c2nc3c(N)nc4cc(-c5cc[nH]n5)ccc4c3[nH]2)C1 [Example 60] |
| 260 nM | CCC(=O)N1CCC[C@H](c2nc3c(N)nc4cc(-c5cc[nH]n5)ccc4c3n2CC)C1 [Example 4, (S)-1-(3-(4-Amino-1-ethyl-7-(1H-pyrazol-3-yl)-1H-imidazo[4,5-c]quinolin-2-yl)piperidin-1-yl)propan-1-one] |

From patent US12492200B2, “NLRP3 modulators” (INNATE TUMOR IMMUNITY, INC., priority 2020, dated 2025)
